We go through one compound from US20230158152A1, “PROTEOLYSIS REGULATOR AND METHOD FOR USING SAME” (MEDSHINE DISCOVERY INC., priority 2020, published 2023).

In this assay the test system is human lung cancer cell NCI-H2228. The assay is described as follows: Anti-proliferative effect in human lung cancer cell NCI-H2228 (CellTiter-Glo). The class given is cell-based. As to conditions: NCI-H2228, 72 h, cell proliferation, cultured for 3 days. Here is the method:
In this assay, the inhibitory effect of assay compounds on cell proliferation was assayed in human lung cancer cell NCI-H2228.
(1) Promega CellTiter-Glo luminescent cell viability assay kit (Promega-G7573). (2) 2104 EnVision® plate reader, PerkinElmer.
The tumor cell line was cultured in a 37° C., 5% CO2 incubator according to the above-mentioned culture conditions. Cells were passaged periodically, and cells in logarithmic growth phase were used for plating.
(1). Cells were stained with trypan blue and viable cells were counted; (2). The cell concentration was adjusted to an appropriate concentration;
(3). 90 μL of cell suspension was added to each well of the culture plate as shown in the table above, and cell-free culture medium was added to the blank control well; (4). The plate was incubated in an incubator at 37° C., 5% CO2, and 100% relative humidity overnight.
Preparation of a mother solution storage plate with 400 times the starting compound concentration: the compounds were diluted serially with DMSO from the highest concentration to the lowest concentration. The plate was prepared freshly every time it was used.
(1). 78 μL of cell culture medium was added to a 96-well plate with a V-shaped bottom. […]
(1). […] The culture plate was left at room temperature for 10 minutes to stabilize the luminescence signal; (9). The luminescent signal was detected on a 2104 EnVision plate reader. […]

SMILES strings stand for the structures.

In turn, `Cc1cc(Nc2ncc(Cl)c(Nc3ccccc3S(=O)(=O)C(C)C)n2)c(OC(C)C)cc1C1CCN(CC(=O)NCCOc2ccc3occ(C4CCC(=O)NC4=O)c3c2)CC1` (stereo not shown) [WX001] returned an IC50 of 91 nM.

In general, IC50 refers to the midpoint of a concentration-inhibition curve. Low readings indicate higher potency, high ones lower potency.
